Results: US20260294946A1, “METHOD TO REDUCE FEED CONVERSION RATIO IN A FARMED ANIMAL” (Inbiose N.V., priority 2023, published 2026)

Assay: Trial in piglets: body weight, growth, feed intake and feed conversion (pre-weaning, 22 days)
Assay type: in vivo
Method: The in vivo experiment was carried out at the commercial pig farm “Degroote Luc” (Bissegem, Belgium).
The experimental design had two treatments: • “Ti” serves as control, i.e., a placebo (water) was drenched during the first 4 days of life, and subsequently a commercial milk replacer as a liquid and creep feed was offered until weaning, • “T2,” a […] solution of 2′FL (it is referred to Example 1) in water was drenched during the first 4 days of life, and subsequently a commercial milk replacer supplemented with 2′FL (warm water was added to 250 g of milk powder to reach 25.000 (w/v)) and creep feed supplemented with 2′FL (10% w/w 2′FL) was offered until weaning. The composition of milk replacer and creep feed are detailed in Table 4.
Within 6 hours after birth of all piglets within a litter, piglets were tagged, weighed and ranked according to live weight. This was d0 of the study. Then, the first drenching was given, i.e., the heaviest piglet in the pen receives Ti, the next piglet T2 and so forth, until 12 piglets of that litter were drenched. In the next litter, the order of treatment application was alternated. This practice was done in 16 litters, and drenching was repeated on d1, d2 and d3. At the d4, […] were allocated to 16 pens with 6 piglets each, in the nursery unit. Ti was applied in 8 pens, and T2 was offered in 8 remaining pens. Piglets were allocated to pens according to litter of origin (from each of the 16 litters; 6 vital, normal to heavy weight piglets, body weight ≥1.7 kg, were taken and half of the piglets were allocated to a pen from T1—those receiving T1 in the first 3 days of life, and others to a pen from T2—those receiving T2 in the first 3 days of life), and to body weight and sex. Piglets were offered the liquid milk replacer through a cup connected to a mixing-tubing system and had free access to milk at all times. Milk intake was accurately measured at pen level. From d14 on, in addition, piglets were offered a creep feed (solid feed in feeder pan). Piglets were weighed at d0, d4, d14 and d22 (day of weaning).
Data was collected with respect to piglet performance (body weight, average daily gain (ADG), average daily feed intake and milk replacer for periods d0-4, d4-14, d14-22, d4-22, d0-22, total creep feed intake for period d14-22 and feed conversion for all periods.
Data were analyzed using appropriate linear mixed model with treatment as fixed effect (T1 vs. T2) and litter as random effect, and body weight at d0 as co-variate if P<0.05. Piglet was used as experimental unit for growth data, whereas pen was the experimental unit for other records.

2′-fucosyllactose [2′FL]
body weight, ADG, milk intake, and creep feed intake versus placebo (22 days of pre-weaning phase): no significant differences
FCR versus placebo (22 days of pre-weaning phase, trend): there is a trend that the FCR is reduced
Body weight (d 0, P=0.839 vs placebo): 1536 g
ADG (average daily gain) (d 0-4, P=0.363 vs placebo): 139 g/day
ADG (average daily gain) (d 0-22, P=0.297 vs placebo): 185 g/day
Body weight (d 4, P=0.369 vs placebo): 2087 g
ADFI milk (average daily feed intake) (d 4-14, P=0.555 vs placebo): 149 g DM/d
FCR (milk) (d 4-14, P=0.835 vs placebo): 1.03 g milk DM/g
ADG (average daily gain) (d 4-14, P=0.950 vs placebo): 150 g/day
ADG (average daily gain) (d 4-22, P=0.253 vs placebo): 196 g/day
FCR (milk) (d 4-22, P=0.268 vs placebo): 1.04 g milk DM/g
ADFI milk (average daily feed intake) (d 4-22, P=0.834 vs placebo): 202 g DM/d
Body weight (d 14, P=0.946 vs placebo): 3524 g
FCR (milk + creep feed) (d 14-22, P=0.038 vs placebo): 1.18 (g milk DM + g creep feed DM)/
FCR (milk) (d 14-22, P=0.055 vs placebo): 1.09 g milk DM/g
ADG (average daily gain) (d 14-22, P=0.134 vs placebo): 250 g/day
ADFI creep feed (average daily feed intake) (d 14-22, P=0.304 vs placebo): 23.8 g DM/d
ADFI milk (average daily feed intake) (d 14-22, P=0.885 vs placebo): 270 g DM/d
Body weight (d 22, P=0.306 vs placebo): 5524 g
FCR versus placebo (day 14 to 22, milk and creep feed (P=0.038)): even lower
FCR versus placebo (day 14 to 22, milk intake (P=0.055)): lower
